Results reported in PubChem BioAssay AID248 (DTP/NCI, 2004).
Several values for one entry are separate records, joined by “and”; a condition that tells them apart may be missing. Equal values may be shown once. Toxic doses and inconclusive results are not listed. No stated cut-off is given here; in the data, active means T/C of 150% or more; inactive means T/C below 125%.

System: L1210 leukemia ip in BDF1 mice, survival T/C
Experiment: NCI In Vivo Anticancer Drug Screen. Data for tumor model L1210 Leukemia (intraperitoneal) in B6D2F1 (BDF1) mice
Settings: endpoint: mean survival time, higher = longer survival
Method in brief: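 Antitumor effect is assessed in tumor-bearing animals. Survival in the compound arm is compared with a vehicle-dosed control arm and expressed as their quotient.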

[1] = dose: 100.0 mg/kg/injection, schedule: Q04DX003 (ip), vehicle: saline
[2] = dose: 200.0 mg/kg/injection, schedule: Q04DX003 (ip), vehicle: saline
[3] = dose: 400.0 mg/kg/injection, schedule: Q04DX003 (ip), vehicle: saline
[4] = dose: 100.0 mg/kg/injection, schedule: Q01DX009 (ip), vehicle: Klucel (hydroxypropylcellulose) (HPC)
[5] = dose: 100.0 mg/kg/injection, schedule: Q04DX003 (ip), vehicle: Klucel (hydroxypropylcellulose) (HPC)
[6] = dose: 200.0 mg/kg/injection, schedule: Q04DX003 (ip), vehicle: Klucel (hydroxypropylcellulose) (HPC)
[7] = dose: 400.0 mg/kg/injection, schedule: Q04DX003 (ip), vehicle: Klucel (hydroxypropylcellulose) (HPC)
[8] = dose: 100.0 mg/kg/injection, schedule: Q01DX009 (ip), vehicle: saline with Tween-80
[9] = dose: 100.0 mg/kg/injection, schedule: Q04DX003 (ip), vehicle: saline with Tween-80
[10] = dose: 200.0 mg/kg/injection, schedule: Q01DX009 (ip), vehicle: saline with Tween-80
[11] = dose: 200.0 mg/kg/injection, schedule: Q04DX003 (ip), vehicle: saline with Tween-80
[12] = dose: 400.0 mg/kg/injection, schedule: Q01DX009 (ip), vehicle: saline with Tween-80
[13] = dose: 400.0 mg/kg/injection, schedule: Q04DX003 (ip), vehicle: saline with Tween-80
[14] = dose: 200.0 mg/kg/injection, schedule: Q01DX009 (ip), vehicle: Klucel (hydroxypropylcellulose) (HPC)
[15] = dose: 400.0 mg/kg/injection, schedule: Q01DX009 (ip), vehicle: Klucel (hydroxypropylcellulose) (HPC)
[16] = dose: 50.0 mg/kg/injection, schedule: Q01DX001 (ip), vehicle: saline
[17] = dose: 100.0 mg/kg/injection, schedule: Q01DX001 (ip), vehicle: saline
[18] = dose: 200.0 mg/kg/injection, schedule: Q01DX001 (ip), vehicle: saline
[19] = dose: 400.0 mg/kg/injection, schedule: Q01DX001 (ip), vehicle: saline
[20] = dose: 50.0 mg/kg/injection, schedule: Q04DX003 (ip), vehicle: saline
[21] = dose: 75.0 mg/kg/injection, schedule: Q01DX001 (ip), vehicle: other
[22] = dose: 150.0 mg/kg/injection, schedule: Q01DX001 (ip), vehicle: other
[23] = dose: 300.0 mg/kg/injection, schedule: Q01DX001 (ip), vehicle: other
[24] = dose: 12.5 mg/kg/injection, schedule: Q01DX009 (ip), vehicle: saline
[25] = dose: 25.0 mg/kg/injection, schedule: Q01DX009 (ip), vehicle: saline
[26] = dose: 50.0 mg/kg/injection, schedule: Q01DX009 (ip), vehicle: saline

Measured: T/C

c1cncc(CNc2ncn[nH]2)c1
inactive: dose: 100.0 mg/kg/injection, schedule: Q01DX009 (ip), vehicle: saline 103 % of control | [1] 97 % of control | dose: 200.0 mg/kg/injection, schedule: Q01DX009 (ip), vehicle: saline 97 % of control | [2] 103 % of control | dose: 400.0 mg/kg/injection, schedule: Q01DX009 (ip), vehicle: saline 103 % of control | [3] 95 % of control

CCCCCCCCCC(N)=O
inactive: dose: 50.0 mg/kg/injection, schedule: Q01DX009 (ip), vehicle: Klucel (hydroxypropylcellulose) (HPC) 97 % of control | dose: 100.0 mg/kg/injection, schedule: Q01DX001 (ip), vehicle: Klucel (hydroxypropylcellulose) (HPC) 110 % of control | [4] 90 % of control | dose: 200.0 mg/kg/injection, schedule: Q01DX001 (ip), vehicle: Klucel (hydroxypropylcellulose) (HPC) 100 % of control | dose: 400.0 mg/kg/injection, schedule: Q01DX001 (ip), vehicle: Klucel (hydroxypropylcellulose) (HPC) 93 % of control

CCOc1ncc([N+](=O)[O-])cc1[N+](=O)[O-]
inactive: [5] 88 % of control | [6] 92 % of control | [7] 90 % of control

CCOC(=O)/C=N/Nc1ccc([N+](=O)[O-])cc1[N+](=O)[O-]
inactive: dose: 50.0 mg/kg/injection, schedule: Q01DX001 (ip), vehicle: other 95 % of control | dose: 100.0 mg/kg/injection, schedule: Q01DX001 (ip), vehicle: other 90 % of control | dose: 200.0 mg/kg/injection, schedule: Q01DX001 (ip), vehicle: other 95 % of control | dose: 400.0 mg/kg/injection, schedule: Q01DX001 (ip), vehicle: other 92 % of control

CCOC(=O)Nc1cc(Nc2ccc(Cl)cc2)c2nc(-c3ccc(Cl)cc3)c(-c3ccc(Cl)cc3)nc2n1
inactive: dose: 25.0 mg/kg/injection, schedule: Q04DX003 (ip), vehicle: Klucel (hydroxypropylcellulose) (HPC) 104 % of control | dose: 50.0 mg/kg/injection, schedule: Q04DX003 (ip), vehicle: Klucel (hydroxypropylcellulose) (HPC) 101 % of control | [5] 98 % of control

O=C(NC(Cc1ccccc1)C(=O)O)OCc1ccccc1 (configuration not stated)
inactive: [8] 98 % of control | [9] 105 % of control | [10] 98 % of control | [11] 94 % of control | [12] 88 % of control | [13] 96 % of control

COC1OC(COS(C)(=O)=O)C(O)C(O)C1OS(C)(=O)=O (configuration not stated)
inactive: [4] 109 % of control | [5] 106 % of control | [14] 95 % of control | [6] 102 % of control | [15] 111 % of control | [7] 102 % of control

Cc1c(Cl)cccc1NC(=O)Nc1cccc(C(F)(F)F)c1
inactive: dose: 100.0 mg/kg/injection, schedule: Q01DX001 (ip), vehicle: saline with Tween-80 87 % of control and 88 % of control | [8] 94 % of control and 104 % of control | dose: 100.0 mg/kg/injection, schedule: Q04DX002 (ip), vehicle: saline with Tween-80 93 % of control and 90 % of control | [9] 94 % of control | dose: 200.0 mg/kg/injection, schedule: Q01DX001 (ip), vehicle: saline with Tween-80 91 % of control | [10] 93 % of control and 97 % of control | dose: 200.0 mg/kg/injection, schedule: Q04DX002 (ip), vehicle: saline with Tween-80 88 % of control and 89 % of control | [11] 97 % of control | dose: 400.0 mg/kg/injection, schedule: Q01DX001 (ip), vehicle: saline with Tween-80 94 % of control and 89 % of control | [12] 100 % of control and 104 % of control | dose: 400.0 mg/kg/injection, schedule: Q04DX002 (ip), vehicle: saline with Tween-80 100 % of control and 90 % of control | [13] 96 % of control

O=C(CCCC(=O)N/N=C/c1cc([N+](=O)[O-])ccc1O)N/N=C\c1cc([N+](=O)[O-])ccc1O
inactive: [16] 96 % of control | [17] 104 % of control | [18] 102 % of control | [19] 98 % of control

O=C(O)C(Oc1ccccc1)Oc1ccccc1
inactive: dose: 50.0 mg/kg/injection, schedule: Q01DX001 (ip), vehicle: alkali diluted with saline 100 % of control | dose: 100.0 mg/kg/injection, schedule: Q01DX001 (ip), vehicle: alkali diluted with saline 96 % of control | dose: 200.0 mg/kg/injection, schedule: Q01DX001 (ip), vehicle: alkali diluted with saline 100 % of control | dose: 400.0 mg/kg/injection, schedule: Q01DX001 (ip), vehicle: alkali diluted with saline 96 % of control

Cc1cc[n+](CCc2ccccc2)cc1
inactive: dose: 12.5 mg/kg/injection, schedule: Q01DX009 (ip), vehicle: carboxymethylcellulose (CMC) 97 % of control | dose: 25.0 mg/kg/injection, schedule: Q01DX009 (ip), vehicle: carboxymethylcellulose (CMC) 97 % of control | dose: 50.0 mg/kg/injection, schedule: Q01DX009 (ip), vehicle: carboxymethylcellulose (CMC) 105 % of control | [20] 100 % of control | dose: 75.0 mg/kg/injection, schedule: Q01DX001 (ip), vehicle: carboxymethylcellulose (CMC) 108 % of control | [21] 104 % of control | [1] 92 % of control and 100 % of control | dose: 150.0 mg/kg/injection, schedule: Q01DX001 (ip), vehicle: carboxymethylcellulose (CMC) 115 % of control | [22] 104 % of control | [23] 105 % of control

OCC(O)C(O)C(O)C(c1ccc(Cl)cc1)c1ccc(Cl)cc1 (configuration not stated)
inactive: [16] 104 % of control and 103 % of control and 101 % of control | [17] 102 % of control and 103 % of control and 97 % of control | [18] 98 % of control and 101 % of control and 97 % of control | [19] 96 % of control and 91 % of control and 101 % of control

CCN(CC)CCCOC(=O)C(CCC(C)C)c1ccccc1C (configuration not stated)
inactive: [24] 93 % of control | dose: 12.5 mg/kg/injection, schedule: Q04DX003 (ip), vehicle: saline 102 % of control | [25] 102 % of control | dose: 25.0 mg/kg/injection, schedule: Q04DX003 (ip), vehicle: saline 100 % of control | [26] 93 % of control | [20] 94 % of control

C[CH2][Sn]([CH2]C)([O]S(C)(=O)=O)[O]S(C)(=O)=O
inactive: dose: 0.78 mg/kg/injection, schedule: Q01DX009 (ip), vehicle: saline 95 % of control | dose: 1.56 mg/kg/injection, schedule: Q01DX009 (ip), vehicle: saline 98 % of control | dose: 3.12 mg/kg/injection, schedule: Q01DX009 (ip), vehicle: saline 106 % of control | dose: 6.25 mg/kg/injection, schedule: Q01DX009 (ip), vehicle: saline 116 % of control | [24] 102 % of control

Nc1cc(Cl)c2n[nH]nc2n1
inactive: [21] 96 % of control | [22] 102 % of control | [23] 100 % of control

CC(=O)Nc1cc(C)c(Cl)cc1Cl
inactive: dose: 31.25 mg/kg/injection, schedule: Q01DX009 (ip), vehicle: saline 103 % of control | dose: 62.5 mg/kg/injection, schedule: Q01DX009 (ip), vehicle: saline 103 % of control | [1] 100 % of control | dose: 125.0 mg/kg/injection, schedule: Q01DX009 (ip), vehicle: saline 102 % of control | [2] 105 % of control | [3] 101 % of control

O=C(O)C(F)(F)C(F)(F)C(=O)Nc1cc([N+](=O)[O-])ccc1F
inactive: [17] 93 % of control | [18] 93 % of control | [19] 93 % of control

c1ccc(C[N+]23CCN(CC2)CC3)cc1
inactive: [24] 119 % of control | [25] 109 % of control | [26] 108 % of control

O=C(Nc1cccc(F)c1)N(CC(O)c1ccccc1)C1CCCCC1 (configuration not stated)
inactive: [4] 114 % of control | [14] 100 % of control | [15] 97 % of control

CCCCC(CCCC)c1cc[n+](CC(=O)c2ccccc2)cc1
inactive: dose: 12.5 mg/kg/injection, schedule: Q01DX001 (ip), vehicle: saline 106 % of control | [16] 97 % of control

CC[N+](C)(CC)CCCNC(=O)C(c1ccccc1)c1ccccc1
inactive: [9] 100 % of control

CC(C(Nc1ccc(C(=O)O)cc1)C(F)(F)C(F)(F)C(F)(F)F)[N+](=O)[O-] (configuration not stated)
inactive: [5] 88 % of control | [6] 89 % of control | [7] 98 % of control
